In this assay the target is T1, hDMT1 (SLC11A2) (Homo sapiens, UniProt P49281).
T1 construct: DsRED; expressed in transfected cells
T1 sequence (P49281 1-568): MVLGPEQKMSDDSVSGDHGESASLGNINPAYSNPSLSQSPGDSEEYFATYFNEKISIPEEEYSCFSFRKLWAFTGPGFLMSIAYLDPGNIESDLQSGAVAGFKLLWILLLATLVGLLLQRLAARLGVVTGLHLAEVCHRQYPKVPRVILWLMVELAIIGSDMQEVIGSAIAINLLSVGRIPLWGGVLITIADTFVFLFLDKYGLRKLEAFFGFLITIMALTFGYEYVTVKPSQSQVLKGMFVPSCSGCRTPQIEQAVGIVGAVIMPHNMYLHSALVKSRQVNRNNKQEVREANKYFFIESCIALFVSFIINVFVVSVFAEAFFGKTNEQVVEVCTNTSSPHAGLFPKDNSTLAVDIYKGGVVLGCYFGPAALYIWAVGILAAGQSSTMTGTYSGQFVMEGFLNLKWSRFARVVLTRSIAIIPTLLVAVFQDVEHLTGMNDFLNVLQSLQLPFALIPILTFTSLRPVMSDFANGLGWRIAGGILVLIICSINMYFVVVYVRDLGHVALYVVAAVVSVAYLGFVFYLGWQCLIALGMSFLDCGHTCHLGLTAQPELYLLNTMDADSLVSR
As to the kind of experiment: radioactive iron uptake assay in HEK293 cells stably overexpressing hDMT1. It counts as cell-based. The following applies: for inhibition at 10 µM: HEK293, 10 μM compound, radioactive iron uptake, pH 5.5; for Ligand efficiency: from IC50 of radioactive iron uptake in HEK293-hDMT1; for IC50: radioactive iron 1 μM, 15 min incubation, extracellular pH 5.5, HEK293 stably overexpressing hDMT1.

The inhibition is the relative decrease from the control value, in per cent. For `CCc1cc(=O)n(-c2nc(C)cc(=O)[nH]2)[nH]1` [Compound 21], the inhibition at 10 µM was under 20%.
`Cc1cc(=O)[nH]c(-n2nc(-c3ccccc3)cc2C)n1` [Compound 11]: the inhibition at 10 µM is under 20%.
One may read the IC50 as the concentration that inhibits the measured activity by half. Consider `CCc1cc(CC)n(-c2nc(C)cc(=O)[nH]2)n1` [Compound 16], for which the Ligand efficiency stood at 0.45 and the IC50 worked out at 3.8 ± 0.2 µM.
For `Cc1cc(=O)[nH]c(-n2nc(C)c(C)c2C)n1` [Compound 6], in that order: 0.44 and 10 ± 0.4 µM.
For `Cc1cc(=O)[nH]c(-n2nc3c(c2C)COCC3)n1` [Compound 14], the inhibition at 10 µM was under 20%.
For `CCc1c2c(nn1-c1nc(C)cc(=O)[nH]1)CCCC2` [Compound 17], the Ligand efficiency came out at 0.42 and the IC50 came out at 2.26 ± 0.3 µM.
Regarding `Cc1cc(=O)[nH]c(-n2nc(C)c(-c3ccccc3)c2C)n1` [Compound 8], the inhibition at 10 µM was under 20%.
The same measure, in the same setting: then `Cc1cc(=O)[nH]c(-n2nc(C)c(Cc3ccccc3)c2C)n1` [Compound 9], with under 20%; and `Cc1cc(=O)[nH]c(-n2nc(C(C)(C)C)cc2C)n1` [Compound 10], with under 20%.
With `CCc1c(C)nn(-c2nc(C)cc(=O)[nH]2)c1C` [Compound 7], the Ligand efficiency worked out at 0.40 and the IC50 is 4.2 ± 0.4 µM.
`CCOC(=O)c1cnc(-n2[nH]c(C)cc2=O)[nH]c1=O` [Compound 25]: the inhibition at 10 µM was under 20%.
Same read-out and setting: to `Cc1cc(=O)[nH]c(-n2nc3c(c2C)CCC3)n1` [Compound 12] belongs under 20%.
As for `Cc1cc(=O)[nH]c(-n2nc3c4c2CCCC4CCC3)n1` (stereo not shown) [Compound 18], the Ligand efficiency is 0.42 and the IC50 amounted to 0.94 ± 0.2 µM.
`Cc1cc(C)c(CSC(=N)N)c(C)c1CSC(=N)N` [Compound 2, reference compound]: the Ligand efficiency was determined as 0.25.
With `Cc1cc(=O)[nH]c(-n2[nH]c(C)c(Cc3ccccc3)c2=O)n1` [Compound 22], the inhibition at 10 µM is under 20%.
As to `Cc1cc(C)nc(-n2nc(C)cc2C)n1` [Compound 20], the inhibition at 10 µM is under 20%.
Still for that read-out and setting: to `Cc1cc(=O)[nH]c(-n2nc3c(c2C)CNCC3)n1` [Compound 15] belongs under 20%; to `CCc1cc(=O)[nH]c(-n2[nH]c(C)cc2=O)n1` [Compound 24], under 20%.
In the case of `Cc1cc(C)n(-c2nc(C)c(C)c(O)n2)n1` [Compound 19], the Ligand efficiency is recorded as 0.43 and the IC50 is 12.5 ± 0.3 µM.

The record behind these values is paper PMC7649969, “Pyrazolyl-pyrimidones inhibit the function of human solute carrier protein SLC11A2 (hDMT1) by metal chelation” (RSC Medicinal Chemistry, 2020).
